These results are taken from ChEMBL document CHEMBL3785012, “Cell-penetrating conjugates of pentaglutamylated methotrexate as potential anticancer drugs against resistant tumor cells” (Eur J Med Chem, 2016).

Series [1] relates to MDA-MB-231. In words: Cytostatic activity against human MDA-MB-231 cells preincubated for 3 hrs followed by serum treatment for 72 hrs measured on day 4 by MTT assay. In kind it is functional, cell-based. On the technique in general: Formazan colour is commonly taken as a measure of viable cells.
The test system of series [2] is MCF7. As to the kind of experiment: Cytostatic activity against human MCF7 cells preincubated for 3 hrs followed by serum treatment for 72 hrs measured on day 4 by MTT assay. Type of series: functional, cell-based.
Series [3] concerns MDA-MB-231. As to the kind of experiment: Drug uptake in human MDA-MB-231 cells at 1 to 10 uM preincubated for 90 mins followed by compound wash out and subsequent trypsin addition for 10 mins by 5 (6)-carboxy-fluorescein based flow cytometric analysis. To be noted: mda-mb-231, 10 min. In kind it is ADME, cell-based. On the technique in general: A flow cytometer gives signals particle by particle.

Series [4] deals with MCF7. In words: Drug uptake in human MCF7 cells at 1 to 10 uM preincubated for 90 mins followed by compound wash out and subsequent trypsin addition for 10 mins by 5 (6)-carboxy-fluorescein based flow cytometric analysis. To be noted: mcf7, 10 min. In kind it is ADME, cell-based.
Series [5] deals with MCF7. In words: Drug uptake in human MCF7 cells at 1 uM preincubated for 90 mins followed by compound wash out and subsequent trypsin addition for 10 mins by 5 (6)-carboxy-fluorescein based flow cytometric analysis. In kind it is ADME, cell-based. The note with it: mcf7, 10 min.
For series [6], the system named is MCF7. In words: Drug uptake in human MCF7 cells at 5 uM preincubated for 90 mins followed by compound wash out and subsequent trypsin addition for 10 mins by 5 (6)-carboxy-fluorescein based flow cytometric analysis. In kind it is ADME, cell-based. To be noted: mcf7, 10 min.
Series [7] concerns MCF7. As to the kind of experiment: Drug uptake in human MCF7 cells at 10 uM preincubated for 90 mins followed by compound wash out and subsequent trypsin addition for 10 mins by 5 (6)-carboxy-fluorescein based flow cytometric analysis. In kind it is ADME, cell-based. To be noted: mcf7, 10 min.

Residues, ends and D or L forms follow the SMILES beside them. *: point of attachment. DAMPA = CN(Cc1cnc2nc(N)nc(N)c2n1)c1ccc(C(=O)*)cc1 Some results are limits rather than exact numbers.

Consider `CC[C@H](C)[C@H](NC(=O)[C@H](CCCCN)NC(=O)[C@@H](NC(=O)[C@H](CCC(N)=O)NC(=O)[C@H](CCCNC(=N)N)NC(=O)CNC(=O)[C@H](CC(C)C)NC(=O)[C@H](Cc1ccccc1)NC(=O)CNC(=O)[C@H](CCC(=O)O)NC(=O)[C@H](CCC(=O)O)NC(=O)[C@H](CCC(=O)O)NC(=O)[C@H](CCC(=O)O)NC(=O)[C@H](CCC(=O)O)NC(=O)[C@H](CCC(=O)O)NC(=O)c1ccc(N(C)Cc2cnc3nc(N)nc(N)c3n2)cc1)[C@@H](C)CC)C(=O)N[C@@H](Cc1c[nH]c2ccccc12)C(=O)N[C@@H](Cc1ccccc1)C(=O)N[C@@H](CCC(N)=O)C(=O)N[C@@H](CC(N)=O)C(=O)N[C@@H](CCCNC(=N)N)C(=O)N[C@@H](CCCNC(=N)N)C(=O)N[C@@H](CCCCN)C(=O)N[C@@H](Cc1c[nH]c2ccccc12)C(=O)N[C@@H](CCCCN)C(=O)N[C@@H](CCCCN)C(=O)O` ({DAMPA}-EEEEEEGFLGRQIKIWFQNRRKWKK-OH), for which the 50% inhibitory concentration (IC50) (usually the concentration needed to halve the response being measured) in series [1] worked out at 0.4 µM; in series [2] it was 0.3 µM. Further, the Drug uptake entry in series [3] and in series [4] was “Active” throughout.

Turning to `CN(Cc1cnc2nc(N)nc(N)c2n1)c1ccc(C(=O)N[C@@H](CCC(=O)O)C(=O)N[C@@H](CCCNC(=N)N)C(=O)N[C@@H](CCCNC(=N)N)C(=O)N[C@@H](CCCNC(=N)N)C(=O)N[C@@H](CCCNC(=N)N)C(=O)N[C@@H](CCCNC(=N)N)C(=O)N[C@@H](CCCNC(=N)N)C(=O)N[C@@H](CCCNC(=N)N)C(=O)N[C@@H](CCCNC(=N)N)C(=O)O)cc1`, the half-inhibitory concentration (IC50) in series [1] was 100 µM; in series [2] it was greater than 100 µM.

For `CC(C)C[C@H](NC(=O)[C@H](Cc1ccccc1)NC(=O)CNC(=O)[C@H](CCC(=O)O)NC(=O)[C@H](CCC(=O)O)NC(=O)[C@H](CCC(=O)O)NC(=O)[C@H](CCC(=O)O)NC(=O)[C@H](CCC(=O)O)NC(=O)[C@H](CCC(=O)O)NC(=O)c1ccc(N(C)Cc2cnc3nc(N)nc(N)c3n2)cc1)C(=O)NCC(=O)N[C@@H](CCCNC(=N)N)C(=O)N[C@@H](CCCNC(=N)N)C(=O)N[C@@H](CCCNC(=N)N)C(=O)N[C@@H](CCCNC(=N)N)C(=O)N[C@@H](CCCNC(=N)N)C(=O)N[C@@H](CCCNC(=N)N)C(=O)N[C@@H](CCCNC(=N)N)C(=O)N[C@@H](CCCNC(=N)N)C(=O)O` ({DAMPA}-EEEEEEGFLGRRRRRRRR-OH), the IC50 was 100 µM in series [1] and greater than 100 µM in series [2].

As to `CC[C@H](C)[C@H](NC(=O)[C@H](CCCCN)NC(=O)[C@@H](NC(=O)[C@H](CCC(N)=O)NC(=O)[C@H](CCCNC(=N)N)NC(=O)[C@H](CCC(=O)O)NC(=O)[C@H](CCC(=O)O)NC(=O)[C@H](CCC(=O)O)NC(=O)[C@H](CCC(=O)O)NC(=O)[C@H](CCC(=O)O)NC(=O)[C@H](CCC(=O)O)NC(=O)c1ccc(N(C)Cc2cnc3nc(N)nc(N)c3n2)cc1)[C@@H](C)CC)C(=O)N[C@@H](Cc1c[nH]c2ccccc12)C(=O)N[C@@H](Cc1ccccc1)C(=O)N[C@@H](CCC(N)=O)C(=O)N[C@@H](CC(N)=O)C(=O)N[C@@H](CCCNC(=N)N)C(=O)N[C@@H](CCCNC(=N)N)C(=O)N[C@@H](CCCCN)C(=O)N[C@@H](Cc1c[nH]c2ccccc12)C(=O)N[C@@H](CCCCN)C(=O)N[C@@H](CCCCN)C(=O)O` ({DAMPA}-EEEEEERQIKIWFQNRRKWKK-OH), the IC50 in series [1] is 0.1 µM; in series [2], greater than 100 µM. The Drug uptake result in series [3] and in series [4] was “Active” throughout.

For `CC[C@H](C)[C@H](NC(=O)[C@H](CCCCN)NC(=O)[C@@H](NC(=O)[C@H](CCC(N)=O)NC(=O)[C@H](CCCNC(=N)N)NC(=O)CNC(=O)[C@H](CC(C)C)NC(=O)[C@H](Cc1ccccc1)NC(=O)CNC(=O)[C@H](CCC(=O)O)NC(=O)c1ccc(N(C)Cc2cnc3nc(N)nc(N)c3n2)cc1)[C@@H](C)CC)C(=O)N[C@@H](Cc1c[nH]c2ccccc12)C(=O)N[C@@H](Cc1ccccc1)C(=O)N[C@@H](CCC(N)=O)C(=O)N[C@@H](CC(N)=O)C(=O)N[C@@H](CCCNC(=N)N)C(=O)N[C@@H](CCCNC(=N)N)C(=O)N[C@@H](CCCCN)C(=O)N[C@@H](Cc1c[nH]c2ccccc12)C(=O)N[C@@H](CCCCN)C(=O)N[C@@H](CCCCN)C(=O)O` ({DAMPA}-EGFLGRQIKIWFQNRRKWKK-OH), the values for the IC50 in series [1] and in series [2] were 5.5 µM and 13.9 µM, respectively. Moreover, the Drug uptake entry in series [3] and in series [4] was “Active” in each case.

`CC(C)C[C@H](NC(=O)[C@H](Cc1ccccc1)NC(=O)CNC(=O)[C@H](CCC(=O)O)NC(=O)c1ccc(N(C)Cc2cnc3nc(N)nc(N)c3n2)cc1)C(=O)NCC(=O)N[C@@H](CCCNC(=N)N)C(=O)N[C@@H](CCCNC(=N)N)C(=O)N[C@@H](CCCNC(=N)N)C(=O)N[C@@H](CCCNC(=N)N)C(=O)N[C@@H](CCCNC(=N)N)C(=O)N[C@@H](CCCNC(=N)N)C(=O)N[C@@H](CCCNC(=N)N)C(=O)N[C@@H](CCCNC(=N)N)C(=O)O` ({DAMPA}-EGFLGRRRRRRRR-OH): the IC50 in series [1] was determined as 19.1 µM; in series [2], 31.3 µM.

As to `CN(Cc1cnc2nc(N)nc(N)c2n1)c1ccc(C(=O)N[C@@H](CCC(=O)O)C(=O)N[C@@H](CCC(=O)O)C(=O)N[C@@H](CCC(=O)O)C(=O)N[C@@H](CCC(=O)O)C(=O)N[C@@H](CCC(=O)O)C(=O)N[C@@H](CCC(=O)O)C(=O)N[C@@H](CCCNC(=N)N)C(=O)N[C@@H](CCCNC(=N)N)C(=O)N[C@@H](CCCNC(=N)N)C(=O)N[C@@H](CCCNC(=N)N)C(=O)N[C@@H](CCCNC(=N)N)C(=O)N[C@@H](CCCNC(=N)N)C(=O)N[C@@H](CCCNC(=N)N)C(=O)N[C@@H](CCCNC(=N)N)C(=O)O)cc1` ({DAMPA}-EEEEEERRRRRRRR-OH), the 50% inhibitory concentration (IC50) in series [1] and in series [2] was greater than 100 µM each time. Further, the Drug uptake result in series [3] and in series [4] was “Active” each time.

With `N=C(N)NCCC[C@H](NC(=O)[C@H](CCCNC(=N)N)NC(=O)[C@H](CCCNC(=N)N)NC(=O)[C@H](CCCNC(=N)N)NC(=O)[C@H](CCCNC(=N)N)NC(=O)[C@H](CCCNC(=N)N)NC(=O)[C@H](CCCNC(=N)N)NC(=O)[C@@H](N)CCCNC(=N)N)C(=O)O`, the results for the IC50 in series [1] and in series [2] were greater than 100 µM and 100 µM, respectively. The Flu intensity in series [5] was 975; in series [6], less than 8669; in series [7], less than 52928. Also, the Drug uptake entry in series [3] was “Active”.

Take `CN(Cc1cnc2nc(N)nc(N)c2n1)c1ccc(C(=O)N[C@@H](CCC(=O)O)C(=O)O)cc1` [METHOTREXATE]: the IC50 is greater than 100 µM in series [1] and 0.8 µM in series [2].

On to `CC[C@H](C)[C@H](NC(=O)[C@H](CCCCN)NC(=O)[C@@H](NC(=O)[C@H](CCC(N)=O)NC(=O)[C@H](CCCNC(=N)N)NC(=O)[C@H](CCC(=O)O)NC(=O)c1ccc(N(C)Cc2cnc3nc(N)nc(N)c3n2)cc1)[C@@H](C)CC)C(=O)N[C@@H](Cc1c[nH]c2ccccc12)C(=O)N[C@@H](Cc1ccccc1)C(=O)N[C@@H](CCC(N)=O)C(=O)N[C@@H](CC(N)=O)C(=O)N[C@@H](CCCNC(=N)N)C(=O)N[C@@H](CCCNC(=N)N)C(=O)N[C@@H](CCCCN)C(=O)N[C@@H](Cc1c[nH]c2ccccc12)C(=O)N[C@@H](CCCCN)C(=O)N[C@@H](CCCCN)C(=O)O` ({DAMPA}-ERQIKIWFQNRRKWKK-OH), for which the IC50 came out at 12.9 µM in series [1] and 40.2 µM in series [2].
